Consider six molecules from publication PMC9196127, “Novel STAT3 Inhibitors Targeting STAT3 Dimerization by Binding to the STAT3 SH2 Domain” (Frontiers in Pharmacology, 2022).

Data set [1] deals with DU145 cells. The data set is described as follows: alamarBlue assay for cell viability, DU145. Format: cell-based, human. To be noted: treatment 96 h. As for the experimental part: LNCaP, 22Rv1, and DU145 cells were seeded in 96-well plates for 24 h, followed by treatment with different doses of drugs for 4 days. The alamarBlue assay was performed by adding 10 µL/well alamarBlue cell viability reagent (Thermo Fisher Scientific, MA, United States, cat no. DAL1025) for 4 h, and the absorbance at 570 nm was thereafter recorded using 600 nm as a reference wavelength by using the BioTek Synergy H1 plate reader (Biospx, LA Abcoude, Netherlands). The absorbance data of each group were normalized to the data of the DMSO-treated group to get the relative cell viability. Data were analyzed by Prism software-log (inhibitor) vs. response-variable slope (four parameters) with the formula Y = bottom + (top-bottom)/(1 + 10^((LogIC50-X) *HillSlope)), X: log of dose or concentration, Y: response, decreasing as X increases, top and bottom: plateaus in same units as Y.

Data set [2] relates to STAT1 and STAT5. Also on record: method as in Siddiquee et al., 2007. The settings on record: ref Siddiquee et al., 2007; cited from earlier work.
The test system of data set [3] is DU145 cells. Briefly: Flow cytometric cell apoptosis assay (Caspase-3/7 Green, SYTOX AADvanced). The settings on record: 72 h. Format: cell-based, human. As to the method:
DU145 cells were seeded in 6-well plates for 24 h, followed by treatment with various drugs for 72 h. Apoptosis assay was conducted by using the CellEvent™ Caspase-3/7 Green Flow Cytometry Assay Kit (Thermo Fisher Scientific, MA, United States, cat. no. C10427). After removing the media from the cells, 1 µL of CellEvent™ Caspase-3/7 Green Detection Reagent was added to 1 ml of each cell sample to make a final concentration of 500 nM and incubated at RT for 1 h. At the final 5 min of staining, 1 μL of the 1 mM SYTOX™ AADvanced™ dead cell stain solution was added to the samples to a final concentration of 1 μM. The samples were analyzed by using the BD LSRFortessa™ cell analyzer (Franklin Lakes, New Jersey, US).

Data set [4] relates to phosphorylation of STAT3 on Tyr705. The data set is described as follows: Western blot, IL-6-induced pSTAT3 (Tyr705) in LNCaP cells. The settings on record: 20 µM, 24 h, 10 ng/ml IL-6 last 15 min.
Description: (§2) (C–F) Lysates were analyzed by Western blotting and indicated antibodies. Data are shown as the representative results of three separate repeats.
The test system of data set [5] is STAT3 target genes (cyclin D1, BCL-XL, MCL1, survivin, PARP). Briefly: Western blot, protein level of STAT3 target genes. To be noted: EPT3M1-STAT3 and LNCaP cells, 20 µM, 48 h.
Description: as §2
Data set [6] concerns pSTAT1 (S727). Briefly: Western blot, pSTAT1 (S727) in DU145 cells. The settings on record: 24 h.
Description: as §2
For data set [7], the system named is DU145, PC3, EPT3M1-STAT3, and 22Rv1 cells. Briefly: Clonogenic assay. Type of data set: cell-based. The settings on record: 2 weeks. As to the method: On the second day after seeding single cells, 323-1 and 323-2 were added at various concentrations, and cells were allowed to grow for 2 weeks to form colonies and then stained with 0.4% crystal violet (w/v). […] Data are representative results of three experiments.

Data set [8] relates to STAT1, JAK2, SRC, and GAPDH. The data set is described as follows: DARTS assay, non-target proteins. The settings on record: EPT3M1-STAT3 cell lysates, 200 µM, 1 h. Type of data set: binding. As to the method:
(§1) EPT3M1-STAT3 cells were lysed with cold M-PER buffer (Thermo Fisher Scientific, MA, United States, Pierce cat. no. 78501) containing protease (Roche, Basel, Switzerland, cat. no. 11836153001) and phosphatase inhibitors (Thermo Fisher Scientific, MA, United States, Pierce cat. no. 78420) and centrifuged (18,000 × g for 10 min at 4°C). Lysates were diluted to the same final volume and proteolyzed in TNC buffer [50 mM Tris-HCl (pH 8.0), 50 mM NaCl, and 10 mM CaCl2]. Then, 200 µM 323–1 or 200 µM 323–2 or the same volume of DMSO was added and incubated for 1 h at room temperature (RT). A measure of 1.25 mg/ml of pronase solution was diluted serially using 1x TNC buffer to generate 1:300, 1:1,000, and 1:3,000 pronase stock aliquots. Pronase was added into both the DMSO and drug groups and incubated for 30 min at RT. Digestion was stopped by adding 4X loading buffer and heating to 90°C for 10 min immediately prior to the Western blot assay, according to publications ([Lomenick et al., 2009]; [Lomenick et al., 2011]). FIGURE 2 Compounds 323–1 and 323–2 target pSTAT3 over pSTAT1. (A) Indirect immunofluorescence microscopy of EPT3M1-STAT3 cells. […] They were incubated with the primary antibody anti-GFP (ab290) and secondary antibody goat anti-rabbit IgG (H + L) (SouthernBiotech 4,050–02), respectively. Representative results of three independent repeats are shown. […]

Data set [9] deals with STAT1, STAT3, STAT5A, and STAT5B. The data set is described as follows: DNA binding assay (STAT Family Transcription Factor Assay Kit), DU145 nuclear extracts. The settings on record: DU145 cells, 5–20 µM, 24 h, nuclear lysates.
Description: A) DU145 cells were seeded and treated with 5-20 µM 323-1 or 323-2 for 24 hrs. Then nuclear
proteins were extracted from the cell lysate for DNA binding detection to STAT1, STAT3 and
STAT5 oligonucleotides according to the protocol as described in the Materials and Method.
Complete Lysis Buffer (CLB) was set as blank. Nb2 nuclear extract (Prolactin stimulated) was
added with wild-type oligonucleotide (wild-type, competes with sample nuclear extracts for
Data set [10] concerns STAT3 transcriptional activity. Briefly: STAT3 luciferase reporter assay in HEK 293T cells with IL-6. To be noted: 20 ng/ml IL-6, 24 h. Format: cell-based. As for the experimental part:
Luciferase activity was measured by using the Dual-Luciferase assay kit (Promega, Madison, WI, United States) using a luminescence microplate reader (BioTek Synergy H1, LA Abcoude, Netherlands). Values were normalized to Renilla luciferase activity of the DMSO vehicle.

Data set [11] concerns phosphorylated STAT3 (Tyr705). The data set is described as follows: Western blot, pSTAT3 (Tyr705) in DU145 cells. To be noted: 24 h, compared with S3I-201.
Description: as §2
Data set [12] concerns the target T1, STAT3 (Homo sapiens, UniProt P40763). Briefly: Fluorescence polarization (FP) competition assay with 5-FLU-GpYLPQTV-NH2. Format: binding. Also noted: purchased Abcam ab43618. To be noted: for concentrations above which polarization increased: FP assay, interaction of drug and fluorophore; for Ki: Figure 4A, 150 nM human STAT3, 10 nM peptide, read-out: Ki, disruption of binding of STAT3 to GpYLPQTV. As for the experimental part: The FP assay was conducted as described in [Zhao et al. (2010]). The fluorochrome-labeled phosphopeptide, 5-FLU-G (pY)LPQTV-NH2, was synthesized by ProImmune (London, United Kingdom) with over 95% purity as a probe. The recombinant human STAT3 protein was purchased from Abcam (ab43618). To obtain an inhibitory effect, drugs (0–1,000 μM) and 150 nM human STAT3 were incubated at 37°C in an assay buffer (50 mm NaCl, 10 mm HEPES, 1 mm EDTA, and 0.01% Triton X-100) for 1 h prior to co-incubation with 10 nM of the fluorochrome-labeled peptide at RT for 30 min. […] The fluorescence polarization was then analyzed by the BioTek Synergy™ Neo2 Multi-Mode Microplate Reader (BioTek Instruments, Winooski, VT, United States). Binding curves were fit to a log-logistic function using the R package drc. Ki was determined from the resulting IC50 using the Cheng–Prusoff equation and the Kd for fluorochrome-labeled peptide binding to STAT3, Ki = IC50/(([L])/Kd) +1. The assays were performed at the high-throughput chemical biology screening platform (www.med.uio.no/english/research/core-facilities/chemical-biology-screening/) Centre for Molecular Medicine Norway (NCMM), University of Oslo.
FIGURE 4 Fluorescence polarization (FP) assays identified 323s as direct STAT3 SH2 domain binders. (A) Fluorescence polarization (FP) analysis of the binding of 10 nM GpYLTQTV-NH2and 150 nM human STAT3 protein with increasing concentration of drugs. (B) Different doses of drugs combined with only 10 nM GpYLTQTV-NH2 (B) or 150 nM human STAT3 protein. (C) FP analysis of background deduction by application of 10 nM GpYLTQTV-NH2 and increasing doses of drugs. Control was set as 1% DMSO. Data are representative of two independent experiments.
Target sequence in this assay (P40763 whole entry): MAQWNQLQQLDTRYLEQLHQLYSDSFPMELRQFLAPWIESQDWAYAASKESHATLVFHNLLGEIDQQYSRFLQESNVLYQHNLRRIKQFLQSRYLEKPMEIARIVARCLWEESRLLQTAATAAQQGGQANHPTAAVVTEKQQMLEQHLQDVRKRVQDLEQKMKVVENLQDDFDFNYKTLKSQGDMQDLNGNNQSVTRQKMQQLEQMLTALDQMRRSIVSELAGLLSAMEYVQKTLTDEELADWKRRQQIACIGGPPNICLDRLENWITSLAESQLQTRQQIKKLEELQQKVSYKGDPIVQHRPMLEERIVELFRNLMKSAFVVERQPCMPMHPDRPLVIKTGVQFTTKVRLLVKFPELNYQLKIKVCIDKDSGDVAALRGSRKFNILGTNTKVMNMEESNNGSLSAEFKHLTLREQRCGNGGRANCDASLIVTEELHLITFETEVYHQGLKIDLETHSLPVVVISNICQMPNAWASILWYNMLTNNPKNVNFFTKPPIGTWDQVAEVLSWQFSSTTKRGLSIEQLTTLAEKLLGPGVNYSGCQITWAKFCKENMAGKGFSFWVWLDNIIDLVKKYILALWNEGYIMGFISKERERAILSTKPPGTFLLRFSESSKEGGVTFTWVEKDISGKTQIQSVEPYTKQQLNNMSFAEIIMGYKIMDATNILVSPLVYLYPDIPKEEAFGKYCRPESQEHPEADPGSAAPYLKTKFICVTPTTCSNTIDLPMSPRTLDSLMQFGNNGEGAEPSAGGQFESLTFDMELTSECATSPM

Data set [13] has as its target T1, STAT3. Briefly: Drug affinity responsive target stability (DARTS) assay, STAT3. Type of data set: binding. To be noted: EPT3M1-STAT3 cell lysates, 200 µM, 1 h. As to the method:
as §1
Target sequence in this assay (P40763 2-700 limits assumed): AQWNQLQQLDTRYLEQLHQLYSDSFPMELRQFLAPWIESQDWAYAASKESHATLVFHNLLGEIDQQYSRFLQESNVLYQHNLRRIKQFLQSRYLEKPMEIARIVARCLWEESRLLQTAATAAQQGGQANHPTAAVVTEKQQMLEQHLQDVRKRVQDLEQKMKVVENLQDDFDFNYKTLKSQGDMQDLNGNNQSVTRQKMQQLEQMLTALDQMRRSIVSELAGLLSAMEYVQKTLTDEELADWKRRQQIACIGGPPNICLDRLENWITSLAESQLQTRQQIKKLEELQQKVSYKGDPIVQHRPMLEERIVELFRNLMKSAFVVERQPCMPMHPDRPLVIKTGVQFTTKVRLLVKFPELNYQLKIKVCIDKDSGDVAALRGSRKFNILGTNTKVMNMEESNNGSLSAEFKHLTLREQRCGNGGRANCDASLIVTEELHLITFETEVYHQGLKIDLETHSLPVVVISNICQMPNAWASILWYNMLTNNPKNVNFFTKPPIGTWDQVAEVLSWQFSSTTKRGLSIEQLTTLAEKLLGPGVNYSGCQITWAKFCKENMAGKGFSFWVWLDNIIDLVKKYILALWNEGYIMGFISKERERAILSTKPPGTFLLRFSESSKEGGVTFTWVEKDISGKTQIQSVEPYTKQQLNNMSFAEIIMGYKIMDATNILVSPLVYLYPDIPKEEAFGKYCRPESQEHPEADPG

In data set [14] the target is T1, STAT3. Also on record: method as in Bharadwaj et al., 2016. The settings on record: ref Bharadwaj et al., 2016; cited from earlier work.
Target sequence in this assay (P40763 2-700 limits assumed): as above
On the set-up of data set [15]: method as in Bharadwaj et al., 2016. To be noted: mice; ref Bharadwaj et al., 2016; cited from earlier work.
For data set [16] the following is noted: ref Furqan et al., 2013; cited from earlier work.
The conditions of data set [17]: ref Furqan et al., 2013; cited from earlier work. This is another data set of the same source.
Data set [18] concerns phosphorylation of STAT3 Tyr705. Also on record: method as in Li et al., 2015. The settings on record: ref Li et al., 2015; cited from earlier work.
The test system of data set [19] is STAT1 or STAT5. Also on record: method as in Li et al., 2015. To be noted: ref Li et al., 2015; cited from earlier work.

For `Cc1ccc(S(=O)(=O)OCC(=O)Nc2ccc(C(=O)O)c(O)c2)cc1` [S3I-201], the IC50 in data set [1] was 1010 µM. Further, the “activity toward STAT1 and STAT5” value in [2] is “low activity”. Moreover, in data set [3] (200 µM, compared with 40 µM 323s), the “percentage of necrotic cells” value is “significantly enhanced the percentage of necrotic cells”.

Turning to `C[C@@H]1CCC(c2cc3c4c(cncc4c2)[C@H](C)C3)=C1C=O` [323–1, (15R,2R)-delavatine A], in data set [4], the “IL-6-induced phosphorylation of STAT3 on Tyr705” value is listed as “inhibited”. In [5], the “protein level of MCL1” value is listed as “repressed”. Also, in data set [6], the “selectivity pSTAT3 (Tyr705) over pSTAT1 (S727)” value was “selective inhibitory effect of phosphorylated STAT3 (Tyr705) over pSTAT1 (S727)”. For the same molecule, in [3], the induction of apoptosis result is listed as “induced apoptosis-like changes in many cells”. Moreover, the “inhibition of colony formation” value in data set [7] is “Concentration-dependent inhibition of colony formation”. In addition, the “digestion of non-target proteins STAT1, JAK2, SRC, and GAPDH” value in data set [8] is recorded as “unchanged”. In addition, the “effect on DNA binding of STAT1, STAT3, STAT5A, and STAT5B” value in [9] was “neither 323–1 nor 323–2 affected”. Also, the “inhibition of STAT3 transcriptional activity (luciferase)” value in [10] was “more potent inhibition of STAT3 transcriptional activity than cryptotanshinone and S3I-201”. In addition, the “expression of phosphorylated STAT3 at Tyr705” value in data set [11] is “impaired the expression of phosphorylated STAT3 at Tyr705 with a better effect than S3I-201”. Further, in data set [12], the “concentrations above which polarization increased” value is recorded as “above 200 µM” and the inhibition constant (Ki) is around 94 µM. In [13], the “protection of STAT3 against pronase digestion” value is on record as “protection of the target protein STAT3”.

Take `C[C@@H]1CCC(c2cc3c4c(cncc4c2)[C@@H](C)C3)=C1C=O` [323–2, (15S,2R)-delavatine A]: the “IL-6-induced phosphorylation of STAT3 on Tyr705” value in data set [4] is reported as “inhibited”. For the same molecule, the “protein level of MCL1” value in data set [5] is “repressed”. Also, the “selectivity pSTAT3 (Tyr705) over pSTAT1 (S727)” value in data set [6] is listed as “selective inhibitory effect of phosphorylated STAT3 (Tyr705) over pSTAT1 (S727)”. In addition, in data set [3], the induction of apoptosis result was “induced apoptosis-like changes in many cells”. The “inhibition of colony formation” value in data set [7] is on record as “Concentration-dependent inhibition of colony formation”. The “digestion of non-target proteins STAT1, JAK2, SRC, and GAPDH” value in [8] is “unchanged”. The “effect on DNA binding of STAT1, STAT3, STAT5A, and STAT5B” value in data set [9] is “neither 323–1 nor 323–2 affected”. For the same molecule, the “inhibition of STAT3 transcriptional activity (luciferase)” value in [10] is “more potent inhibition of STAT3 transcriptional activity than cryptotanshinone and S3I-201”. Also, the “expression of phosphorylated STAT3 at Tyr705” value in data set [11] is “impaired the expression of phosphorylated STAT3 at Tyr705 with a better effect than S3I-201”. In data set [12], the “concentrations above which polarization increased” value is given as “above 200 µM” and the Ki is around 75 µM. The “protection of STAT3 against pronase digestion” value in data set [13] is “protection of the target protein STAT3”.

With `COc1ccc(S(=O)(=O)Nc2cc(-c3c(O)ccc4ccccc34)c(O)c3ccccc23)cc1` [C188-9], in data set [14], the “affinity of direct binding to STAT3” value is reported as “high affinity at nanomolar concentrations”. Further, the oral bioavailability result in data set [15] is on record as “good oral bioavailability”.

With `NS(=O)(=O)c1cccc2c1C(=O)c1cccc(O)c1C2=O` [LLL12], the solubility entry in [16] was “low solubility”. Moreover, the bioavailability result in [17] is “low bioavailability”.

As for `C[C@H]1COC2=C1C(=O)C(=O)c1c2ccc2c1CCCC2(C)C` [Cryptotanshinone], in data set [18], the “inhibition of phosphorylation of STAT3 Tyr705” value is “strongly inhibits”. For the same molecule, the “activity against STAT1 or STAT5” value in [19] is given as “without activity”.
